Activity calls are given as the source filed them. The rule behind the calls is not given here.
Key:
HCT-116 [1] = test: Cytotoxicity against p53 -/- human HCT116 cells assessed as growth inhibition at 200 uM incubated for 24 hrs by WST-1 assay; format: functional, cell-based
HCT-116 [2] = test: Cytotoxicity against p53 +/+ human HCT116 cells assessed as growth inhibition at 200 uM incubated for 24 hrs by WST-1 assay; format: functional, cell-based
HCT-116 [3] = test: Cytotoxicity against p53 +/+ human HCT116 cells assessed as growth inhibition incubated for 24 hrs by WST-1 assay; format: functional; settings: HCT-116, 24 h, read-out: LD50 (the source's name)

SMILES: CC(C)(C)OC(=O)NCCCCC(=O)Nc1cccc2ccccc12
- growth inhibition (GI) (HCT-116 [1]): inactive
- growth inhibition (GI) (HCT-116 [2]): inactive

SMILES: CC(C)C[C@H](NC(=O)[C@H](Cc1ccc(O)cc1)NC(=O)OC(C)(C)C)C(=O)Nc1cccc2ccccc12
- growth inhibition (GI) (HCT-116 [1]): Active
- growth inhibition (GI) (HCT-116 [2]): Active

SMILES: CC(C)(C)OC(=O)N[C@@H](Cc1ccc(O)cc1)C(=O)N[C@@H](CC(=O)O)C(=O)Nc1cccc2ccccc12
- growth inhibition (GI) (HCT-116 [1]): inactive
- growth inhibition (GI) (HCT-116 [2]): inactive

SMILES: CC(C)(C)OC(=O)NCCC(=O)Nc1cccc2ccccc12
- growth inhibition (GI) (HCT-116 [1]): inactive
- growth inhibition (GI) (HCT-116 [2]): inactive

SMILES: CC(C)(C)OC(=O)N[C@@H](Cc1ccc(O)cc1)C(=O)N[C@@H](Cc1ccccc1)C(=O)Nc1cccc2ccccc12
- growth inhibition (GI) (HCT-116 [1]): Active
- CC50 (HCT-116 [3]): 30.7 µM
- growth inhibition (GI) (HCT-116 [2]): Active

SMILES: CC(C)(C)OC(=O)NCCCCCCC(=O)Nc1cccc2ccccc12
- growth inhibition (GI) (HCT-116 [1]): inactive
- growth inhibition (GI) (HCT-116 [2]): inactive

SMILES: CC(C)[C@H](NC(=O)[C@H](Cc1ccc(O)cc1)NC(=O)OC(C)(C)C)C(=O)Nc1cccc2ccccc12
- growth inhibition (GI) (HCT-116 [1]): Active
- growth inhibition (GI) (HCT-116 [2]): Active

SMILES: CC(C)(C)OC(=O)N[C@@H](Cc1ccc(O)cc1)C(=O)N[C@@H](CCC(=O)O)C(=O)Nc1cccc2ccccc12
- growth inhibition (GI) (HCT-116 [1]): inactive
- growth inhibition (GI) (HCT-116 [2]): inactive

Source: ChEMBL document CHEMBL2331167, “Inhibitory effect of novel somatostatin peptide analogues on human cancer cell growth based on the selective inhibition of DNA polymerase β” (Bioorg Med Chem, 2013)
